For series [1] the following is noted: for gastrointestinal discomfort or side effects / self-reported breathing difficulties (chest tightness, shortness of breath, respiratory difficulty) and nausea: inhaled nebulized 3.5% sodium bicarbonate; for self-reported breathing difficulties (chest tightness, shortness of breath, respiratory difficulty) and nausea: all participants. The method, then: A randomized, single-blinded, crossover design was used. Participants completed a repeated sprint exercise protocol to total exhaustion in an indoor facility after inhaling 20 mL of a 3.5% sodium bicarbonate solution (700 mg) dissolved in water or a placebo (pure water) prior to the sprint test. Participants inhaled the solutions through a commercially available nebulizer (Pari Vios Nebulizer System™) for 30 min while seated at rest over 5 bouts of 6 min (4 mL/bout) prior to completing the first sprint set and were required to breathe the same solution for 60 seconds in between each set (described below).
The order of placebo or bicarbonate was assigned with a numbering system of 1 and 2 respectively, where half of the participants were randomly assigned a 1-2 vs 2-1 order with each trial separated by one week. Following the last trial, participants were asked to guess the order of trials. […] Participants were also asked to describe any noticeably breathing difficulties including chest tightness, shortness of breath or any sign of respiratory difficulty, as well as nausea.

The conditions of series [2]: upwards of / over 20 grams, literature studies, cited from earlier work.
Where [3] appears, read: inhaled 3.5% sodium bicarbonate, sets 1-4, p<0.05.
Where [4] appears, read: participants that completed more than 4 sprint sets, non-significant trend.

Where two headings read alike, the source gives them in different places.

`O=C([O-])O.[Na+]` [sodium bicarbonate]: in series [1] (setting [3]), the “average improvement in sprint time vs placebo, first half of each set (shuttle sprints 1-3)” value is recorded as 3.5% and the “improvement in average sprint time vs placebo, sprints 4-6 of each set” value is 4.5%. The “decrease in average sprint time vs placebo, overall (sprints 1-6 of each set)” value in series [1] (inhaled 20 mL of 3.5% sodium bicarbonate solution (700 mg) by nebulizer plus 60 s between sets, 4 sets of 6x40 m sprints, p<0.05) was determined as 4.1%. Further, in series [1], the “gastrointestinal discomfort or side effects” value is reported as “no participants experienced any symptoms of gastrointestinal discomfort or side effects”; the “self-reported breathing difficulties (chest tightness, shortness of breath, respiratory difficulty) and nausea” value is “free of any such distress”. Moreover, the “self-reported breathing difficulties (chest tightness, shortness of breath, respiratory difficulty) and nausea” value in series [1] (listed as nebulized bicarbonate) is reported as “free of respiratory distress”. For the same compound, the “gastrointestinal discomfort or side effects” value in series [1] (listed as Nebulized bicarbonate) is “without detrimental side effects”. For the same compound, in series [1] (setting [4]), the “improvement in performance (faster time) in sprint set 5” value came to 5% and the “improvement in performance (faster time) in sprint set 6” value is on record as 7%. In addition, in series [2] (listed as bicarbonate), the “faster sprint times after oral ingestion” value is recorded as no more than 5%. Also, the “faster sprint times after oral ingestion” value in series [2] is reported as less than 5%.

Values taken from patent publication US20250121000A1, “INHALABLE BICARBONATE COMPOSITIONS AND DELIVERY SYSTEMS THEREFOR” (Nebulize Performance Inc., priority 2023, published 2025).
